Data on eight molecules can be found in patent EP0369733A2, “Fluorescent indicator dyes for alkali metal cations, their preparation and use” (THE REGENTS OF THE UNIVERSITY OF CALIFORNIA, priority 1988, dated 1990).

Where “and” joins values, the source holds several entries; their conditions need not be identical. Equal values may be shown once.

As usually defined, the Kd is the equilibrium constant for the complex coming apart. Usually pKa stands for the negative logarithm of the acid dissociation constant. High values mean a weaker acid or stronger base, low ones a stronger acid or weaker base.

Data set [1] in a line: Cation titration followed by absorbance or fluorescence excitation spectra: Na⁺ binding. To be noted: for Kd: read-out: Dissociation constants (Kd) in mM for Na⁺. The protocol:
(§1) • Footnote a: For molecular structures, see Fig. 1. • Footnote b: Except where otherwise noted, these dissociation constants were measured with the chelator dissolved in 0.1 M tetramethylammonium chloride, at a pH held high enough with 1-5 mM tris(hydroxymethyl)aminomethane for protonation to be insignificant. The absorbance spectrum, or the fluorescence excitation spectrum for those compounds (2GG, 2NN, 2OO, 2PP, 3NN) with acronyms was measured as a function of the concentration of cation added as a solid or concentrated aqueous solution of the halide salt. No correction has been made for the changing ionic strength of the solution, which started from 0.1 M and increased, but the absorbances and fluorescence amplitudes were applied for dilution of the dye and any slight quenching due to high concentrations of Cl⁻. • Footnote c: These protonation constants were determined in 0.1 M tetramethylammonium chloride, 10 mM tris(hydroxymethyl)aminomethane, titrated with 5 M H₃PO₄ to successively lower pH values measured with a Radiometer PHM84 meter. […] The first number is the wavelength in nanometers, followed in parentheses by 10⁻³ x the corresponding extinction coefficient, M⁻¹cm⁻¹. […] Emission maxima are not corrected for the spectral sensitivity of the emission detection. Quantum efficiencies were measured (13) by comparing the integral of the corrected emission spectrum with the corresponding integral for a solution of quinine bisulfate in 1 N H₂SO₄ of matched absorbance at the excitation wavelength.
(§2) Affinities for other cations were usually measured by titrating aqueous solutions of the indicator with metal chlorides added either as solid or from concentrated stock solutions, taking care to minimize dilution and correct for it. A convenient way to mass-produce premeasured micromole to millimole aliquots of solid NaCl or KCl was to pipet saline solutions into polypropylene micro test tubes and evaporate the water in an oven. The standard ionic background was again 100 mM tetramethylammonium chloride, usually with a few mM of tris(hydroxymethyl)-aminomethane base to hold the pH high enough (pH 8-9) to insure that protonation was negligible. This convenient titration procedure had the slight disadvantage that the ionic strength was not constant, especially when large quantities of a salt had to be added due to weak affinities. […] When constant ionic strength was desired, the chelator was made up at identical concentrations in matched solutions of NaCl, KCl, or tetramethylammonium chloride, then these stocks were mixed in the desired proportions. All measurements were made at room temperature (22°, ±2° C).

A short description of data set [2]: Cation titration followed by absorbance or fluorescence excitation spectra: Li⁺ binding. To be noted: 0.1 M tetramethylammonium chloride, 1-5 mM tris(hydroxymethyl)aminomethane, high pH; read-out: Dissociation constants (Kd) in mM for Li⁺. The protocol: as §1, §2
The nature of data set [3]: UV absorbance spectra without and with saturating cation. It counts as physicochemical. The note with it: for Absorbance maxima -Na⁺ (wavelength): 100 mM tetramethylammonium chloride plus 1-5 mM Tris; for Absorbance maxima -Na⁺ (wavelength) / Absorbance maxima -Na⁺ (extinction coefficient): no Na⁺; for Absorbance maxima +Na⁺ (wavelength): enough NaCl added (0.2-1 M) to saturate the Na⁺ binding; for Absorbance maxima +Na⁺ (extinction coefficient) / Absorbance maxima -Na⁺ (extinction coefficient): number is 10⁻³ x the extinction coefficient; for Absorbance maxima +Na⁺ (extinction coefficient): lower limits, saturating NaCl (0.2-1 M); for Absorbance maxima -Na⁺ (extinction coefficient): lower limits for most compounds. The protocol: as §1
(§3) UV absorbance spectra were recorded initially on a Cary 210 and later on a Perkin-Elmer Lambda Array 3840 spectrophotometer. Fluorescence excitation and emission spectra and quantum efficiencies were measured on a Spex Fluorolog 111 as described previously (13).

Data set [4] can be described thus: Fluorescence excitation/emission spectra and quantum efficiency. It counts as physicochemical. To be noted: for Emission maxima -Na⁺: 100 mM tetramethylammonium chloride; for Emission maxima -Na⁺ / Quantum efficiency -Na⁺: no Na⁺; for Emission maxima -Na⁺ / Emission maxima +Na⁺: not corrected for detector sensitivity; for Quantum efficiency -Na⁺ / Quantum efficiency +Na⁺: relative to quinine bisulfate in 1 N H₂SO₄ (0.55); for Emission maxima +Na⁺: saturating NaCl; for Quantum efficiency +Na⁺: saturating Na⁺; for fluorescence quantum yield: ±Na⁺ not specified. The method, then:
as §1, §3

Another data set in a line: physchem. The note with it: 0.1 m tetramethylammonium chloride.
The nature of data set [5]: Proton dissociation constants in 0.1 M tetramethylammonium chloride. To be noted: second value (second protonation), 10 mM Tris titrated with 5 M H₃PO₄.
Method: (§4) • Footnote a: For molecular structures, see Fig. 1. • Footnote b: Except where otherwise noted, these dissociation constants were measured with the chelator dissolved in 0.1 M tetramethylammonium chloride, at a pH held high enough with 1-5 mM tris(hydroxymethyl)aminomethane for protonation to be insignificant. […] No correction has been made for the changing ionic strength of the solution, which started from 0.1 M and increased, but the absorbances and fluorescence amplitudes were applied for dilution of the dye and any slight quenching due to high concentrations of Cl⁻. • Footnote c: These protonation constants were determined in 0.1 M tetramethylammonium chloride, 10 mM tris(hydroxymethyl)aminomethane, titrated with 5 M H₃PO₄ to successively lower pH values measured with a Radiometer PHM84 meter.
(§5) Proton dissociation constants of the chelators were measured by spectrophotometry or spectrofluorometry of buffered solutions, containing either 100 mM tetramethylammonium chloride as inert supporting electrolyte, or 121.5 mM K⁺, 13.5 mM Na⁺, and 1 mM Mg²⁺ to simulate the cation environment of vertebrate cytoplasm (14). Traces of UV-absorbing impurities in the tetramethylammonium chloride (Alfa Inorganics) were removed by filtration through acid-­washed activated charcoal. The concentration of the tetramethylammonium chloride was then measured by chloride titration, and the absence of significant Na⁺ contamination was verified with a sodium-selective glass electrode (Microelectrodes Inc.). When the chelators contained two protonatable nitrogens, the curve of absorbance or fluorescence versus pH was analyzed by computerized least-squares fitting to the equations for two arbitrary proton equilibria (15), with the added assumption that the two protonations each caused the same change in extinction coefficient or fluorescence.
A short description of data set [6]: Cation titration followed by absorbance or fluorescence excitation spectra: Mg²⁺ binding. To be noted: 0.1 M tetramethylammonium chloride, 1-5 mM tris(hydroxymethyl)aminomethane, high pH; read-out: Dissociation constants (Kd) in mM for Mg²⁺. The protocol: as §1
as §2, with “proportions.” for “proportions. All measurements were made at room temperature (22°, ±2° C).”

The nature of data set [7]: Cation titration followed by absorbance or fluorescence excitation spectra: Ca²⁺ binding. To be noted: 0.1 M tetramethylammonium chloride, 1-5 mM tris(hydroxymethyl)aminomethane, high pH; read-out: Dissociation constants (Kd) in mM for Ca²⁺. The method, then: as §1, §2
[8] abbreviates: 0.1 M tetramethylammonium chloride, 1-5 mM tris(hydroxymethyl)aminomethane, pH high enough for protonation to be insignificant, 22°.
[9] abbreviates: association constant, inert background cation (tetramethylammonium).
The mark [10] stands for this setting: footnote h: 3.0 M ionic strength (3.0 M NaCl mixed with 3.0 M tetramethylammonium chloride).

Method for physchem: as §4, §5

As for `O=C(O)CCC(=O)Nc1ccc(N2CCOCCOCCN(c3ccc(NC(=O)CCC(=O)O)c4cc5ccccc5nc34)CCOCC2)c2nc3ccccc3cc12` [Compound 2II, N,N-bis-(1-succinamidoacridin-4-yl)-diaza[15]-crown-5], in data set [1] (setting [8]), the Kd was found to be 0.32 mM. Further, the “Na⁺ affinity” value in data set [1] (setting [9]) amounted to 3125 M⁻¹. The Kd in data set [1] (setting [10]) came out at 0.4 mM. In addition, the “Na⁺:K⁺ selectivity” value in data set [1] (ratio of Na⁺ to K⁺ affinity) is reported as above 500. In data set [2], the Kd was determined as 11.5 mM. In data set [3], the “Absorbance maxima -Na⁺ (wavelength)” value was 414 nanometers and 359 nanometers and 244 nanometers; the “Absorbance maxima +Na⁺ (wavelength)” value was 360 nanometers and 251 nanometers. Further, in data set [4], the “Emission maxima -Na⁺” value is given as 480 nanometers, the “Quantum efficiency -Na⁺” value is “<.001”, the “Emission maxima +Na⁺” value was 625 nanometers and the “Quantum efficiency +Na⁺” value was “<.001”. Further, the fluorescence quantum yield entry in data set [4] is on record as “very poor”. The same molecule yielded a pKa in “physchem” of 8.19. Besides, in data set [5], the pKa was 6.86.

For the molecule `COc1ccc(OC)c(N2CCOCCOCCN(c3cc(OC)ccc3OC)CCOCC2)c1` [Compound 2LL, N,N-bis-(2,5-dimethoxyphenyl)-diaza[15]-crown-5], in data set [1] (setting [8]), the Kd lay within 10 to 20 mM. Also, in data set [3], the “Absorbance maxima -Na⁺ (wavelength)” value is 295 nanometers and 213 nanometers; the “Absorbance maxima +Na⁺ (wavelength)” value is reported as 291 nanometers; the Absorbance maxima +Na⁺ (extinction coefficient) was 4000 M⁻¹ cm⁻¹.

For the molecule `CC(=O)Nc1ccc(N2CCOCCOCCOCCOCC2)c2ncccc12` [Compound 1C, N-(5-acetamido-8-quinolinyl)-aza[15]-crown-5], the Kd was 67 mM in data set [1] (setting [8]), 12 mM in data set [6], 10 mM in data set [7] and 63 mM in data set [2]. The “Na⁺ affinity” value in data set [1] (setting [9]) amounted to 15 M⁻¹. The “Absorbance maxima -Na⁺ (wavelength)” value in data set [3] is 349 nanometers and 252 nanometers. Further, in data set [3], the “Absorbance maxima +Na⁺ (wavelength)” value is 304 nanometers and 229 nanometers. In addition, the pKa in “physchem” is below 7.

Regarding `COc1cc(NC(C)=O)ccc1N1CCOCCOCCN(c2ccc(NC(C)=O)cc2OC)CCOCC1` [Compound 2JJ, N,N-bis-(4-acetamido-2-methoxyphenyl)-diaza[15]-crown-5], the Kd in data set [1] (setting [8]) was 12 mM; in data set [6] it was above 100 mM; in data set [7], above 100 mM; in data set [2], 72 mM. Also, the “Na⁺ affinity” value in data set [1] (at I = 0.15) is recorded as 83 M⁻¹. Moreover, the “Absorbance maxima -Na⁺ (wavelength)” value in data set [3] is 261 nanometers. The “Absorbance maxima +Na⁺ (wavelength)” value in data set [3] was 280 nanometers and 249 nanometers. Moreover, the Absorbance maxima -Na⁺ (extinction coefficient) in data set [3] came to 10800 M⁻¹ cm⁻¹. The Absorbance maxima +Na⁺ (extinction coefficient) in data set [3] was 5400 M⁻¹ cm⁻¹ and 10700 M⁻¹ cm⁻¹. Moreover, the pKa was 6.31 in the data set “physchem” and 5.0 in data set [5].

Regarding `Cc1ccc2c(n1)c(N1CCOCCOCCN(c3cc4oc(-c5ccc(C(=O)O)c(C(=O)O)c5)cc4c4ccc(C)nc34)CCOCC1)cc1oc(-c3ccc(C(=O)O)c(C(=O)O)c3)cc12` [Compound 2GG, N,N-bis(2-(3,4-dicarboxyphenyl)-7-methylfuro [3,2-f]quinolin-5-yl)-diaza[15]-crown-5], the Kd in data set [1] (setting [8]) worked out at 4.7 mM. In data set [3] (listed as 2GG (SQFP)), the “Absorbance maxima -Na⁺ (wavelength)” value is 373 nanometers and 308 nanometers; the “Absorbance maxima +Na⁺ (wavelength)” value is 362 nanometers and 307 nanometers; the Absorbance maxima -Na⁺ (extinction coefficient) is 24000 M⁻¹ cm⁻¹ and 22000 M⁻¹ cm⁻¹; the Absorbance maxima +Na⁺ (extinction coefficient) was 31000 M⁻¹ cm⁻¹ and 28000 M⁻¹ cm⁻¹. In data set [4], the “Emission maxima -Na⁺” value is on record as 486 nanometers, the “Quantum efficiency -Na⁺” value was “.005”, the “Emission maxima +Na⁺” value came out at 525 nanometers and the “Quantum efficiency +Na⁺” value is “.01”. Further, the pKa in “physchem” turned out to be 7.9. Further, the pKa in data set [5] amounted to 6.8.

Regarding `Nc1ccc(N2CCOCCOCCOCCOCC2)c(C(=O)O)c1` [Compound 1B, N-(4-amino-2-carboxyphenyl)-aza[15]-crown-5], the Kd in data set [1] (setting [8]) was 71 mM. Further, in data set [1] (setting [9]), the “Na⁺ affinity” value was determined as 14 M⁻¹. Besides, in data set [3], the “Absorbance maxima -Na⁺ (wavelength)” value worked out at 295 nanometers, the “Absorbance maxima +Na⁺ (wavelength)” value is 296 nanometers, the Absorbance maxima -Na⁺ (extinction coefficient) came to 1100 M⁻¹ cm⁻¹ and the Absorbance maxima +Na⁺ (extinction coefficient) was determined as 1100 M⁻¹ cm⁻¹. In addition, the pKa in “physchem” was 9.21.

In the case of `CC(=O)Nc1ccc(N2CCOCCOCCN(c3ccc(NC(C)=O)c4ccc(C)nc34)CCOCC2)c2nc(C)ccc12` [Compound 2DD, N,N-bis-(5-acetamido-2-methyl-8-quinolinyl)-diaza[15]-crown-5], the Kd in data set [1] (setting [8]) came to 9.4 mM. For the same molecule, the Kd in data set [1] (setting [10]) turned out to be 4.4 mM. For the same molecule, the “Na⁺ affinity relative to 2CC” value in data set [1] (fraction of the affinity of 2CC retained) is on record as “more than half”. Further, in data set [3] (listed as 2DO), the “Absorbance maxima -Na⁺ (wavelength)” value is 344 nanometers and 256 nanometers; the “Absorbance maxima +Na⁺ (wavelength)” value is 306 nanometers and 237 nanometers. Also, in data set [4], the “Emission maxima -Na⁺” value was found to be 525 nanometers, the “Quantum efficiency -Na⁺” value is given as “.01”, the “Emission maxima +Na⁺” value is given as 510 nanometers and the “Quantum efficiency +Na⁺” value is “.01”. Besides, the fluorescence quantum yield in data set [4] is on record as 0.01. Also, the pKa in the data set “physchem” amounted to 7.55. Moreover, the pKa in data set [5] was 5.62.

Turning to `Cc1ccc2cc(O)cc(N3CCOCCOCCN(c4cc(O)cc5ccc(C)nc45)CCOCC3)c2n1` [Compound 2FF, N,N-bis-(6-hydroxy-2-methyl-8-quinolinyl)-diaza[15]-crown-5], the Kd in data set [1] (setting [8]) worked out at 8.9 mM. Also, in data set [3], the “Absorbance maxima -Na⁺ (wavelength)” value was 363 nanometers, the “Absorbance maxima +Na⁺ (wavelength)” value stood at 362 nanometers, the Absorbance maxima -Na⁺ (extinction coefficient) was 2400 M⁻¹ cm⁻¹ and the Absorbance maxima +Na⁺ (extinction coefficient) came out at 2300 M⁻¹ cm⁻¹. In data set [4], the “Emission maxima -Na⁺” value is on record as 497 nanometers and the “Emission maxima +Na⁺” value turned out to be 466 nanometers.
